Measured values as given in patent publication US4499299A, “Pharmaceutically active phenylcarboxylic acid derivatives” (ICI Americas Inc., priority 1981, dated 1985).

System: isolated guinea pig trachea contracted by leukotriene C4 or D4 (SRS-A)
Assay: Antagonism of leukotriene C4 or D4 induced contractions of isolated guinea pig trachea (SRS-A antagonist test)
Format: cell-based
Conditions: inhibition of contraction induced by 8×10^-9 M LTD4 or LTC4, isolated guinea pig tracheal strip, indomethacin 5×10^-6 M present
Protocol: Male Hartley guinea pigs weighing 300-500 g are killed and exsanguinated. The trachea is immediately resected, cleaned of adhering connective tissue and cut into a spiral strip measuring approximately 3 to 5 mm ×20 to 25 mm. The strip is mounted in a 10 ml jacketed tissue bath by tying one end to a tissue hook and the opposite end to a Grass FT03C force-displacement transducer connected to an 8-channel Beckman Polygraph for recording contractile or relaxant responses. The tissue is bathed in modified Krebs' solution (37.5° C.) of the following composition (mM): NaCl, 119; KCl, 4.6; CaCl2, 1.8; MgCl2, 0.5; NaHCO3, 24.9; NaH2 PO4, 1.0; glucose, 11.1. Indomethacin, a cyclooxygenase inhibitor, is also present in a concentration of 5×10^-6 M. The tissue baths are constantly aerated with 95% O2 and 5% CO2. Tissues are placed under a passive tension of 2 g and allowed a 50 minute equilibration period before beginning experiments. This technique is standard for studying the effects of drugs on airway smooth muscle (Krell, R. D., J. Pharmacol. Exp. Ther. 211: 436, 1979; Kneussel, M. P. and Richardson, J. B., J. Appl. Physiol. 45: 307, 1978; Fleisch, J. H. and Calkins, P. J., J. Appl. Physiol. 41: 62, 1976).
Tissues are set up in groups of eight--four are used as time/vehicle controls and the remaining four for experimental compounds. No fewer than 4 tissues are used for each test compound. All tissues are exposed to 8×10^-9 M LTD4, following the 50 minute equilibration period, and the response recorded. This concentration of LTD4 is that which produces a contraction equal to about 70-80% of the maximal effect of the agonist in this tissue. The LTD4 is washed out for 20-25 minutes and the procedure repeated twice to insure that reproducible responses are being obtained with LTD4. LTC4, at a concentration of 8×10^-9 M, may be substituted for LTD4 in the same procedure.
Once tissue reproducibility has been established test compounds are added to four baths following the […] washout period. After a 10 minute incubation with test compound or vehicle 8×10^-9 M LT's are added and the response recorded. Percent inhibition by the test compound or percent change in vehicle controls is calculated, for each tissue, according to the following equation: % inhibition=100 multiplied by (mg tension increase of preceding response minus mg tension increase in presence of compound) divided by mg tension increase of preceding response. The means of the percent changes for vehicle controls and test compound are calculated and evaluated for significant differences by Students' t-test for unpaired data. Tissues exposed to agents were retested for responsiveness to LTD4 or C4 following a 25 minute washout period. […]

SMILES | activity as an SRS-A antagonist
CCCc1c(OCc2ccc(C(=O)O)cc2OC)ccc(C(C)=O)c1O [Example 4, 3-Methoxy-4-(4-acetyl-3-hydroxy-2-propylphenoxy)methylbenzoic acid] | Particularly active
CCCc1c(OCc2ccc(OCC(=O)O)cc2)ccc(C(C)=O)c1O [Example 7, 4-(4-Acetyl-3-hydroxy-2-propylphenoxy)methylphenoxyacetic acid] | Particularly active
CCCc1c(OCc2ccc(/C=C/C(=O)O)cc2)ccc(C(C)=O)c1O [Example 16, 4-(4-Acetyl-3-hydroxy-2-propylphenoxy)methylcinnamic acid] | Particularly active
CCCc1c(OCc2ccc(C=CC(=O)O)cc2OC)ccc(C(C)=O)c1O [Example 22, 3-Methoxy-4-(4-acetyl-3-hydroxy-2-propylphenoxy)methylcinnamic acid] | Particularly active
